Experimental findings from patent publication US9855230B2 (ViiV Healthcare UK (No. 5) Limited, priority 2014, dated 2018) are described below.

A short description of series [1]: Compound cytotoxicity (CC50), XTT-based colorimetric assay. The format is cell-based. To be noted: human; uninfected MT2 cells, day 4, XTT assay. The protocol:
Compound cytotoxicity and the corresponding CC50 values were determined using the same protocol as described in the antiviral assay except that uninfected cells were used. Cytotoxicity was assessed on day 4 in uninfected MT2 cells by using a XTT (2,3-bis[2-Methoxy-4-nitro-5-sulfophenyl]-2H-tetrazolium-5-carboxyanilide inner salt)-based colorimetric assay (Sigma-Aldrich, St Louis, Mo.).
In general terms: Formazan colour is commonly taken as a measure of viable cells.

Series [2] relates to recombinant NL4-3 virus (nef section replaced with Renilla luciferase gene) in MT-2 cells. Kind of series: whole plant or invertebrate. The format is cell-based, HIV. To be noted: NL43, luciferase activity in MT-2 cells infected 4-5 days with recombinant NL4-3 virus. The text has this: A recombinant NL4-3 proviral clone, in which a section of the nef gene was replaced with the Renilla luciferase gene, was used to make the reference virus used in these studies.
Supernatent was harvested after 2-3 days and the amount of virus present was titered in MT-2 cells using luciferase enzyme activity as a marker by measuring luciferase enzyme activity. Luciferase was quantitated using the EnduRen Live Cell Substrate from Promega (Madison, Wis.). Antiviral activities of compounds toward the recombinant virus were quantified by measuring luciferase activity in MT-2 cells infected for 4-5 days with the recombinant virus in the presence of serial dilutions of the compound.

Structures are written as SMILES. Like-named read-outs stand apart in the source and are kept apart here.

Regarding `Cc1ccccc1S(=O)(=O)NC(=O)N[C@@H](Cc1ccccc1)c1nccn1-c1ccc(OC(C)C)cc1` [Example 21, (S)-N-((1-(1-(4-isopropoxyphenyl)-1H-imidazol-2-yl)-2-phenylethyl)carbamoyl)-2-methylbenzenesulfonamide], the CC50 – broadly, the concentration that lowers cell viability or growth by half – at 4 day in series [1] is more than 100 µM. For the same molecule, the EC50 in series [2] (read-out: Activity) is less than 0.1 µM; in series [2] (read-out: EC50) it was 0.05 µM.
As to `Cc1ccccc1S(=O)(=O)NC(=O)N[C@@H](Cc1ccccc1)c1nccn1-c1ccc2c(c1)OCCO2` [Example 22], the CC50 at 4 day in series [1] is more than 100 µM. Moreover, in series [2] (read-out: Activity), the EC50 was 0.1 to 1 µM.
`Cc1cccc(-n2ccnc2[C@H](Cc2ccccc2)NC(=O)NS(=O)(=O)c2ccccc2C)c1` [Example 23, (S)-2-methyl-N-((2-phenyl-1-(1-(m-tolyl)-1H-imidazol-2-yl)ethyl)carbamoyl)benzenesulfonamide]: the CC50 at 4 day in series [1] was more than 100 µM. Also, in series [2] (read-out: Activity), the EC50 is less than 0.1 µM.
As to `CCOc1cccc(-n2ccnc2[C@H](Cc2ccccc2)NC(=O)NS(=O)(=O)c2ccccc2C)c1` [Example 24, (S)-N-((1-(1-(3-ethoxyphenyl)-1H-imidazol-2-yl)-2-phenylethyl)carbamoyl)-2-methylbenzenesulfonamide], the CC50 at 4 day in series [1] is more than 100 µM. Moreover, the EC50 in series [2] (read-out: Activity) is 0.1 to 1 µM; in series [2] (read-out: EC50), 0.6 µM.
As to `CCCOc1ccc(-n2ccnc2[C@H](Cc2ccccc2)NC(=O)NS(=O)(=O)c2ccccc2C)cc1Cl` [Example 25, (S)-N-((1-(1-(3-chloro-4-propoxyphenyl)-1H-imidazol-2-yl)-2-phenylethyl)carbamoyl)-2-methylbenzenesulfonamide], half-maximal cytotoxicity in series [1] (CC50 at 4 day) was put at 50 µM. Further, the EC50 in series [2] (read-out: Activity) is less than 0.1 µM.
On to `CCOc1ccc(-n2ccnc2[C@H](Cc2ccccc2)NC(=O)NS(=O)(=O)c2ccccc2C)cc1Cl` [Example 26, (S)-N-((1-(1-(3-chloro-4-ethoxyphenyl)-1H-imidazol-2-yl)-2-phenylethyl)carbamoyl)-2-methylbenzenesulfonamide], for which the cytotoxic concentration (CC50) at 4 day in series [1] was more than 100 µM. Also, in series [2] (read-out: Activity), the EC50 was less than 0.1 µM.
Regarding `Cc1ccccc1S(=O)(=O)NC(=O)N[C@@H](Cc1ccccc1)c1nccn1-c1ccc2c(c1)OCO2` [Example 27, (S)-N-((1-(1-(benzo[d][1,3]dioxol-5-yl)-1H-imidazol-2-yl)-2-phenylethyl)carbamoyl)-2-methylbenzenesulfonamide], the CC50 at 4 day in series [1] was more than 100 µM. The EC50 was less than 0.1 µM in series [2] (read-out: Activity) and 0.07 µM in series [2] (read-out: EC50).
Consider `Cc1ccccc1-n1ccnc1[C@H](Cc1ccccc1)NC(=O)NS(=O)(=O)c1ccccc1C` [Example 28, (S)-2-methyl-N-((2-phenyl-1-(1-(o-tolyl)-1H-imidazol-2-yl)ethyl)carbamoyl)benzenesulfonamide], for which the CC50 at 4 day in series [1] was more than 100 µM. Also, in series [2] (read-out: Activity), the EC50 was more than 1 µM.
`Cc1ccccc1S(=O)(=O)NC(=O)N[C@@H](Cc1ccccc1)c1nccn1-c1ccc(OCc2ccccc2)cc1` [Example 30, (S)-N-((1-(1-(4-(benzyloxy)phenyl)-1H-imidazol-2-yl)-2-phenylethyl)carbamoyl)-2-methylbenzenesulfonamide] returned a half-maximal cytotoxic concentration (CC50) at 4 day in series [1] of more than 100 µM. Besides, the values for the EC50 in series [2] (read-out: Activity) and in series [2] (read-out: EC50) were 0.1 to 1 µM and 0.28 µM, respectively.
In series [1], `Cc1ccccc1S(=O)(=O)NC(=O)N[C@@H](Cc1ccccc1)c1nccn1-c1ccccc1` [Example 31, (S)-2-methyl-N-((2-phenyl-1-(1-phenyl-1H-imidazol-2-yl)ethyl)carbamoyl)benzenesulfonamide] displayed a CC50 at 4 day of more than 100 µM. In series [2] (read-out: Activity), the EC50 fell in the range of 0.1 to 1 µM.
`Cc1ccc(-n2ccnc2[C@H](Cc2ccccc2)NC(=O)NS(=O)(=O)c2ccccc2C)cc1Cl` [Example 32, (S)-N-((1-(1-(3-chloro-4-methylphenyl)-1H-imidazol-2-yl)-2-phenylethyl)carbamoyl)-2-methylbenzenesulfonamide] had a CC50 at 4 day in series [1] of more than 100 µM. Besides, the EC50 in series [2] (read-out: Activity) is less than 0.1 µM.
As for `Cc1ccccc1S(=O)(=O)NC(=O)N[C@@H](Cc1ccccc1)c1nccn1-c1ccc([N+](=O)[O-])cc1` [Example 33, (S)-2-methyl-N-((1-(1-(4-nitrophenyl)-1H-imidazol-2-yl)-2-phenylethyl)carbamoyl)benzenesulfonamide], in series [1], the cytotoxic concentration (CC50) at 4 day was more than 100 µM. Further, the values for the EC50 in series [2] (read-out: Activity) and in series [2] (read-out: EC50) were 0.1 to 1 µM and 0.19 µM, respectively.
Take `CCOC(=O)Nc1ccc(-n2ccnc2[C@H](Cc2ccccc2)NC(=O)NS(=O)(=O)c2ccccc2C)cc1` [Example 34, (S)-ethyl (4-(2-(2-phenyl-1-(3-(o-tolylsulfonyl)ureido)ethyl)-1H-imidazol-1-yl)phenyl)carbamate]: the CC50 at 4 day in series [1] was more than 100 µM. For the same molecule, the EC50 in series [2] (read-out: Activity) was less than 0.1 µM.
Regarding `CC(=O)Nc1ccc(-n2ccnc2[C@H](Cc2ccccc2)NC(=O)NS(=O)(=O)c2ccccc2C)cc1` [Example 35, (S)-N-(4-(2-(2-phenyl-1-(3-(o-tolylsulfonyl)ureido)ethyl)-1H-imidazol-1-yl)phenyl)acetamide], the half-maximal cytotoxic concentration (CC50) at 4 day in series [1] is more than 33 µM. In series [2] (read-out: Activity), the EC50 was 0.1 to 1 µM.
Take `COC(=O)Nc1ccc(-n2ccnc2[C@H](Cc2ccccc2)NC(=O)NS(=O)(=O)c2ccccc2Cl)cc1` [Example 36, (S)-methyl (4-(2-(1-(3-((2-chlorophenyl)sulfonyl)ureido)-2-phenylethyl)-1H-imidazol-1-yl)phenyl)carbamate]: the CC50 at 4 day in series [1] was more than 100 µM. The EC50 in series [2] (read-out: Activity) is less than 0.1 µM; in series [2] (read-out: EC50), 0.06 µM.
The molecule `COC(=O)Nc1ccc(-n2ccnc2[C@H](Cc2ccccc2)NC(=O)NS(=O)(=O)c2ccccc2)cc1` [Example 37, (S)-methyl (4-(2-(2-phenyl-1-(3-(phenylsulfonyl)ureido)ethyl)-1H-imidazol-1-yl)phenyl)carbamate] registered a CC50 at 4 day in series [1] of more than 33 µM. Also, the EC50 in series [2] (read-out: Activity) lay in the range of 0.1 to 1 µM.
The matching figures for `COC(=O)Nc1ccc(-n2ccnc2[C@H](Cc2ccccc2)NC(=O)NS(=O)(=O)c2ccc(C)cc2)cc1` [Example 38, (S)-methyl (4-(2-(2-phenyl-1-(3-tosylureido)ethyl)-1H-imidazol-1-yl)phenyl)carbamate]: more than 100 µM and 0.1 to 1 µM.
Regarding `COC(=O)Nc1ccc(-n2ccnc2[C@@H](Cc2ccccc2)NC(=O)NS(=O)(=O)c2ccccc2C)cc1` [Example 39], the CC50 at 4 day in series [1] is more than 11 µM. In addition, the EC50 in series [2] (read-out: Activity) was more than 1 µM; in series [2] (read-out: EC50), 1.42 µM.
Molecule `COc1ccc(Cn2ccnc2[C@H](Cc2ccccc2)NC(=O)NS(=O)(=O)c2ccccc2C)cc1` [Example 40, (S)-N-((1-(1-(4-methoxybenzyl)-1H-imidazol-2-yl)-2-phenylethyl)carbamoyl)-2-methylbenzenesulfonamide] yielded a CC50 at 4 day in series [1] of more than 33 µM. Also, the EC50 in series [2] (read-out: Activity) lay in the range of 0.1 to 1 µM.
The like results for `COc1ccc(Cn2ccnc2[C@H](Cc2ccccc2)NC(=O)NS(=O)(=O)c2ccccc2Cl)cc1` [Example 41, (S)-2-chloro-N-((1-(1-(4-methoxybenzyl)-1H-imidazol-2-yl)-2-phenylethyl)carbamoyl)benzenesulfonamide] were, in that order, more than 33 µM and 0.1 to 1 µM.
In turn, `Cc1ccccc1S(=O)(=O)NC(=O)N[C@@H](Cc1ccccc1)c1nccn1-c1ccc(N)cc1` [Example 42, (S)-N-((1-(1-(4-aminophenyl)-1H-imidazol-2-yl)-2-phenylethyl)carbamoyl)-2-methylbenzenesulfonamide] displayed a CC50 at 4 day in series [1] of more than 100 µM. In addition, the EC50 in series [2] (read-out: Activity) was less than 0.1 µM; in series [2] (read-out: EC50), 0.04 µM.
On to `COC(=O)Nc1ccc(-n2ccnc2[C@H](Cc2ccccc2)NC(=O)NS(=O)(=O)c2ccccc2OC)cc1` [Example 44, (S)-methyl (4-(2-(1-(3-((2-methoxyphenyl)sulfonyl)ureido)-2-phenylethyl)-1H-imidazol-1-yl)phenyl)carbamate], for which, in series [1], the CC50 at 4 day is more than 100 µM. Moreover, the EC50 in series [2] (read-out: Activity) is less than 0.1 µM.
`COC(=O)Nc1ccc(-n2ccnc2[C@H](Cc2ccccc2)NC(=O)NS(=O)(=O)c2ccccc2OC(F)(F)F)cc1` [Example 45, (S)-methyl (4-(2-(2-phenyl-1-(3-((2-(trifluoromethoxy)phenyl)sulfonyl)ureido)ethyl)-1H-imidazol-1-yl)phenyl)carbamate]: the CC50 at 4 day in series [1] was more than 100 µM. Moreover, the figures for the EC50 in series [2] (read-out: Activity) and in series [2] (read-out: EC50) were less than 0.1 µM and 0.06 µM, respectively.
The molecule `COC(=O)Nc1ccc(-n2ccnc2[C@H](Cc2ccccc2)NC(=O)NS(=O)(=O)c2ccc(C)s2)cc1` [Example 46, (S)-methyl (4-(2-(1-(3-((5-methylthiophen-2-yl)sulfonyl)ureido)-2-phenylethyl)-1H-imidazol-1-yl)phenyl)carbamate] registered a CC50 at 4 day in series [1] of more than 100 µM. For the same molecule, in series [2] (read-out: Activity), the EC50 is 0.1 to 1 µM.
The like results for `COC(=O)Nc1ccc(-n2ccnc2[C@H](Cc2ccccc2)NC(=O)NS(=O)(=O)Cc2ccccc2)cc1` [Example 47, (S)-methyl (4-(2-(1-(3-(benzylsulfonyl)ureido)-2-phenylethyl)-1H-imidazol-1-yl)phenyl)carbamate] were, in that order, more than 33 µM and 0.1 to 1 µM.
In series [1], `COC(=O)Nc1ccc(-n2ccnc2[C@H](Cc2ccccc2)NC(=O)NS(=O)(=O)Cc2cccc(Cl)c2)cc1` [Example 48, (S)-methyl (4-(2-(1-(3-((3-chlorobenzyl)sulfonyl)ureido)-2-phenylethyl)-1H-imidazol-1-yl)phenyl)carbamate] returned a CC50 at 4 day of more than 100 µM. Also, the EC50 is less than 0.1 µM in series [2] (read-out: Activity) and 0.07 µM in series [2] (read-out: EC50).
